Positions of bridges follow the written chain, without caps; N, C: chain ends. Residues, ends and D or L forms follow the SMILES beside them. No end group written: not given here.
Assays:
[1] = system: ATDC5 cells; test: cGMP production in ATDC5 cells; type: cell-based, mouse; conditions: for cGMP production by peptide alone: 0.1 μM
Text: (§1) To gain further insight into the cellular basis of the interaction between CNP and Ostn in endochondral bone formation, ATDC5 cells were used. These cells are a mouse chondrogenic cell line derived from embryogenic carcinoma cells (Shukunami et al., 1996). […] In another study, NPR-C was also found to be expressed in these cells and the amount of transcripts decreased in association with the chondrogenic differentiation (Fujishige et al., 1999). Therefore, ATDC5 cells are considered to be a good model to study the interaction between CNP and Ostn in vitro.
(§2) Cold and radio iodinated human Ostn[83-133] (SEQ ID NO: 41) were purchased from Phoenix Pharmaceutical co. (CA, USA). CNP was obtained from Sigma (St. Louis, USA) and rat C-ANF was purchased from Bachem (CA, USA). Cyclic GMP direct Biotrak™ EIA kit was obtained from Amersham Biosciences (Quebec, Canada) and DMEM/F-12 and PBS were obtained from Wisent (Quebec, Canada). Protease inhibitors were purchased from Roche (Quebec, Canada)
Cells, grown in 24-well plates to 90% confluence, were washed twice with PBS and incubated in DMEM/F12 containing 1 mM IBMX, a protease inhibitor cocktail (40 ul/ml of medium), 0.1% BSA with or without C-ANF (0.1 μM) or Ostn[83-133] (0.1 μM) for 10 min at 37° C. prior to the addition of varying concentrations of CNP. They were then incubated for 15 min. After incubation, cells were washed twice with PBS and scraped in ice-cold ethanol (65%). The supernatant, obtained by centrifuging at 2000×g for 15 min at 4° C., was evaporated to dryness via speed vac. The amount of cGMP was measured with cGMP direct Biotrak™ EIA kit.

[2] = system: primary rat osteoblastic cultures; conditions: cited from earlier work
[3] = molecular target: T1, human GC-B (Homo sapiens, UniProt P20594); test: Intracellular cGMP in GC-B transfected HEK293 cells; type: cell-based; conditions: 10 nM peptide, 15 min
T1 construct: expressed in transfected cells; host or cells: HEK293, transient, pCDNA1.1 (CMV promoter)
T1 sequence (P20594 23-1047): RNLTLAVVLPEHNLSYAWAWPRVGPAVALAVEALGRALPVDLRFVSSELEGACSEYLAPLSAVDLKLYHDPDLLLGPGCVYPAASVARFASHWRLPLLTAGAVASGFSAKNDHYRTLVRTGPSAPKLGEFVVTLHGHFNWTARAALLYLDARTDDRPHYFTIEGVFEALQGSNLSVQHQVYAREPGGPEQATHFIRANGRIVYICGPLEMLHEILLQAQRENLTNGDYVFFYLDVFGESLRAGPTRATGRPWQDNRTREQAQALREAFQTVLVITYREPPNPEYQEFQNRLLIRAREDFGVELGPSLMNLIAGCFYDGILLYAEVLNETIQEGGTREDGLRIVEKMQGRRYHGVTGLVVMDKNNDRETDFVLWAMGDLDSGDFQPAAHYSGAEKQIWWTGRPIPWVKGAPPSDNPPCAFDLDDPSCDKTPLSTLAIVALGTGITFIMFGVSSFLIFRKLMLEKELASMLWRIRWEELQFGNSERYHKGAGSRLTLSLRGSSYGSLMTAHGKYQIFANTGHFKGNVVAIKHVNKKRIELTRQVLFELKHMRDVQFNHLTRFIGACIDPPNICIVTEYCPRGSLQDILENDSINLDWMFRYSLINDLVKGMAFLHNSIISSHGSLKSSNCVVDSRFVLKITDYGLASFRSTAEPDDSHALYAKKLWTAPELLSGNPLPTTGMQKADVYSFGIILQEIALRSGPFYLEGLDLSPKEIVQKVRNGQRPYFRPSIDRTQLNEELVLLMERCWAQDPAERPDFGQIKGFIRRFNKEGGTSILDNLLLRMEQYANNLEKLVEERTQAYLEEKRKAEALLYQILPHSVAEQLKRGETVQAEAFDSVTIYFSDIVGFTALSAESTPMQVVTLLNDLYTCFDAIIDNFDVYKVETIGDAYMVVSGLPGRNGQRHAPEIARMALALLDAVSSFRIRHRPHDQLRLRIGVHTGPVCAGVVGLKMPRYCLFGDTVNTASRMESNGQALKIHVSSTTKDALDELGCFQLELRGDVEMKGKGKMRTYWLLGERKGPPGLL

[4] = system: foetal mouse tibial organ culture; conditions: ex vivo foetal mouse tibia; cited from earlier work
[5] = molecular target: T2, NPR-C (Mus musculus, UniProt P70180); test: Competitive binding of 125I-Ostn[83-133] on ATDC5 cells
T2 construct: NPR-C was also found to be expressed in these cells; endogenous in cells; host or cells: ATDC5 (mouse chondrogenic cell line), intact cells
T2 sequence (P70180 41-536): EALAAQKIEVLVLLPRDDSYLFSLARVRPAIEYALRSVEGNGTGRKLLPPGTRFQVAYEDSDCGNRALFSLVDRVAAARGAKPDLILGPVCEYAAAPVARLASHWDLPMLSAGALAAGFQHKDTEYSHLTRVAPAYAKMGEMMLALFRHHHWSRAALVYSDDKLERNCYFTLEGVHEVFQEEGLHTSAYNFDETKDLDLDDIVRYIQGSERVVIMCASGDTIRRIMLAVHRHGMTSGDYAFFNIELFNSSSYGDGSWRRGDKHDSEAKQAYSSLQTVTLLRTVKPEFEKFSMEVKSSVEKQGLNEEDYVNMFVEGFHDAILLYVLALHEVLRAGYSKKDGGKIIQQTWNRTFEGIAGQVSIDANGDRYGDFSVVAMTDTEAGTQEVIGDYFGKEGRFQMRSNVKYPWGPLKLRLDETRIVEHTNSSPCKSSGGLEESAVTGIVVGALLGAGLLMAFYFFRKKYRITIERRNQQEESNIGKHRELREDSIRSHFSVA
Text: as §1, with “1999).” for “1999). Therefore, ATDC5 cells are considered to be a good model to study the interaction between CNP and Ostn in vitro.”
as §2
ATDC5 cells, grown in 24-well plates to 90% confluence, were washed twice with cold PBS and incubated with 500 μl of DMEM/F-F12 containing 0.1% BSA (wt/vol), protease inhibitor (40 μl/ml of medium), ^1251-Ostn[83-133] (0.05 μCi/well) and varying concentration of cold Ostn[83-133] (SEQ ID NO: 41) for 90 min at 4° C. After incubation, cells were washed twice with ice-cold PBS and solubilized with 0.5-ml of 0.5 M NaOH.
The radioactivity was measured with gamma-counter (Wallac).

[6] = molecular target: T3, NPR-C (Homo sapiens, UniProt P17342); test: ANP-stimulated cGMP in NPR-C overexpressing HEK293 cells; type: cell-based; conditions: NPR-C overexpressing cells, 0.1 nM ANP[1-28] alone
T3 construct: expressed in transfected cells; host or cells: HEK293, transient, pCDNA1.1 (CMV promoter)
T3 sequence (P17342 27-541): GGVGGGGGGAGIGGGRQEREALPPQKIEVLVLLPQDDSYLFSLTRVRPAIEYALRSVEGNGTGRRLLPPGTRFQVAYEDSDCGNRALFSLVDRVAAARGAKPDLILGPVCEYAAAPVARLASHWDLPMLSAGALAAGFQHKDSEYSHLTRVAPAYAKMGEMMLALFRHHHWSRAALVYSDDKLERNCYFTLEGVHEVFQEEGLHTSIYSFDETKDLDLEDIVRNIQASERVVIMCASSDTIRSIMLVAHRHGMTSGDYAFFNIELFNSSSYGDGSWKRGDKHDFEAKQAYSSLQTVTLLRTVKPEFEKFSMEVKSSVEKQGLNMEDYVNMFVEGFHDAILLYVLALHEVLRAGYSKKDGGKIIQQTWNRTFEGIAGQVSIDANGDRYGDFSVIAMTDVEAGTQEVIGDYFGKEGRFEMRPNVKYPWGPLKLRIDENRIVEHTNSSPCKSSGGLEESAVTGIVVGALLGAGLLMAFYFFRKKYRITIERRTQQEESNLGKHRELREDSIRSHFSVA
Text: The expression plasmid for rat GC-A containing the entire coding sequence cloned between the NheI-KpnI sites of CMV-driven pBK plasmid (Stratagene, La Jolla, Calif.) was kindly provided by Dr. A. De Léan (Département de Pharmacologie, Université de Montréal). The human NPR-C and GC-B coding sequences were amplified by RT-PCR from human embryonic kidney polyA RNA (Clontech, Palo Alto, Calif.) with the following primer pairs: NPR-C-5′-[…]-3′(forward) (SEQ ID NO: 74) and 5′-[…]-3′ (SEQ ID NO: 75) (reverse); GC-B-5′-[…]-3′ (SEQ ID NO: 76) (forward) and 5′-[…]-3′ (SEQ ID NO: 77) (reverse). The resulting PCR products were then cloned downstream of the CMV-promoter into the pCDNA1.1 plasmid (Invitrogen, Burlington, ON, Canada). All constructs were validated by DNA sequencing.

## CNP: natriuretic peptide CNP (1-22) from Sigma; GC-B selective agonist
[1]; varying concentrations of CNP, 15 min
  cGMP production: concentration-dependent cGMP production
[2]
  effect on osteoblast differentiation: stimulated osteoblast differentiation
  effect on proliferation: inhibited proliferation
[3]
  intracellular cGMP response via GC-B: greatest responses
[4]
  effect on bone length: significant increases in bone length

## SFSGFGSPLDRLSAGSVDHKGKQRKVVDHPKRRFGIPMDRIGRNRLSNSRG [Ostn[83-133]]
[1]
  cGMP production by peptide alone: only trace of cGMP production
[5]; 1 μM cold peptide
  inhibition of bound 125I-Ostn[83-133]: More than 90%
[5]; ATDC5 cells, 24-well plates
  total binding: 76.5 pmol/well

## CC[C@H](C)[C@@H]1NC(=O)[C@H](CCCNC(=N)N)NC(=O)[C@H](CC(=O)O)NC(=O)[C@H](CCSC)NC(=O)[C@H](CCCNC(=N)N)NC(=O)CNC(=O)CNC(=O)[C@H](Cc2ccccc2)NC(=O)[C@@H](NC(=O)[C@H](CO)NC(=O)[C@H](CO)NC(=O)[C@H](CCCNC(=N)N)NC(=O)[C@H](CCCNC(=N)N)NC(=O)[C@H](CC(C)C)NC(=O)[C@@H](N)CO)CSSC[C@@H](C(=O)N[C@@H](CC(N)=O)C(=O)N[C@@H](CO)C(=O)N[C@@H](Cc2ccccc2)C(=O)N[C@@H](CCCNC(=N)N)C(=O)N[C@@H](Cc2ccc(O)cc2)C(=O)O)NC(=O)CNC(=O)[C@H](CC(C)C)NC(=O)CNC(=O)[C@H](CO)NC(=O)[C@H](CCC(N)=O)NC(=O)[C@H](C)NC(=O)CNC1=O [ANP]
[6]
  increase in cGMP levels upon ANP stimulation: 1.5 fold
[2]
  effect on osteoblast differentiation: stimulated osteoblast differentiation
  effect on proliferation: inhibited proliferation

## CC[C@H](C)[C@@H]1NC(=O)[C@H](CCCNC(=N)N)NC(=O)[C@H](CC(=O)O)NC(=O)[C@H]([C@@H](C)CC)NC(=O)[C@H](CCCNC(=N)N)NC(=O)CNC(=O)CNC(=O)[C@H](Cc2ccccc2)NC(=O)[C@@H](NC(=O)[C@H](CO)NC(=O)[C@H](CO)NC(=O)[C@@H](N)CCCNC(=N)N)CSSC[C@@H](C(N)=O)NC(=O)[C@H](C)NC(=O)CNC1=O [C-ANF] (H-RSSCFGGRIDRIGAC-NH2; disulfide 4-15; N-terminus and C-terminus assumed)
[1]
  cGMP production by peptide alone: only trace of cGMP production
[2]
  effect on osteoblast differentiation: no effect
[5]
  IC50: 6.7 nM
[5]; 1 μM
  maximal inhibition, less than that of cold Ostn[83-133]: 15%
[4]
  effect on bone length: no effect
